16 compounds from patent publication US20240294489A1 (Captor Therapeutics S.A., priority 2020, published 2024) can be followed below.

What all share (assay type): cell-based
In test [1] the test system is Kelly cells. The test is described as follows: Cell viability CTG assay, Kelly. Particulars: 72 h, 0.001-50 μM, read-out: Kelly Geomean absolute IC50 by molecule, 72 H. The protocol:
(§1) The effect of various compounds of the invention and various reference compounds on cell viability in various cell lines was investigated, using the Cell Viability—CTG Assay Protocol below. Hep3B, Kelly, H929, KG-1 and SNU-398 cells were maintained in respective cell medium (see Table 8, below). The cells were seeded on the 96-well or 384-white plates, and the compounds to be tested were added at the desired concentration range. Compounds are diluted in DMSO, and the DMSO concentration is kept constant at 0.25% v/v across the assay plate. After 72 h incubation (37° C., 5% CO2), CellTiter-Glo® Reagent (Promega/G7570) was added to the wells. Plates are shaken for 4 minutes and incubated for 8 minutes in the dark prior to reading luminescence (LU) by using the CLARIOstar Multimode Plate Reader. The signal is proportional to the amount of ATP, which is directly proportional to the number of cells present in the culture.
(§2) Luminescence (RLU) values were normalized to DMSO control. Dose response is assessed by non-linear regression and IC50 calculation with the average of technical duplicate of percentage inhibition. IC50 values are reported as absolute IC50 values, being the concentration of test compound at the intersection of the concentration-response curves with T/C=50%. For calculation of mean IC50 values the geometric mean is used.

The target in test [2] is T1, GSPT1 (Homo sapiens, UniProt P15170+Q96SW2).
T1 construct: GSPT1 degradation in the Hep3B cell line was investigated; endogenous in cells; host or cells: Hep3B
T1 sequence (P15170 whole entry): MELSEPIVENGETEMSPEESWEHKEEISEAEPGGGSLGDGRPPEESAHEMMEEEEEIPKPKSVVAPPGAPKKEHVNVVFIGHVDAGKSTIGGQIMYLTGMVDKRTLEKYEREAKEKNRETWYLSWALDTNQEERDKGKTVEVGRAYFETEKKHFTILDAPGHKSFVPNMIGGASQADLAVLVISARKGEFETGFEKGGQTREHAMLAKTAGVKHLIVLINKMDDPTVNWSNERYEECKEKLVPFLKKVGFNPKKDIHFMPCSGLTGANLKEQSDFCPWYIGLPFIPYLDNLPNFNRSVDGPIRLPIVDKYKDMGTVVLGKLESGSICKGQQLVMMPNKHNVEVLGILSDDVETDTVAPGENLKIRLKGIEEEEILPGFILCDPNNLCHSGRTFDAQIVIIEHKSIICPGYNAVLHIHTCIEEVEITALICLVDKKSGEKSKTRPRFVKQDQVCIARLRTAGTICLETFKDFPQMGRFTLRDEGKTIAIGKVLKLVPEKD
T1 sequence (Q96SW2 whole entry): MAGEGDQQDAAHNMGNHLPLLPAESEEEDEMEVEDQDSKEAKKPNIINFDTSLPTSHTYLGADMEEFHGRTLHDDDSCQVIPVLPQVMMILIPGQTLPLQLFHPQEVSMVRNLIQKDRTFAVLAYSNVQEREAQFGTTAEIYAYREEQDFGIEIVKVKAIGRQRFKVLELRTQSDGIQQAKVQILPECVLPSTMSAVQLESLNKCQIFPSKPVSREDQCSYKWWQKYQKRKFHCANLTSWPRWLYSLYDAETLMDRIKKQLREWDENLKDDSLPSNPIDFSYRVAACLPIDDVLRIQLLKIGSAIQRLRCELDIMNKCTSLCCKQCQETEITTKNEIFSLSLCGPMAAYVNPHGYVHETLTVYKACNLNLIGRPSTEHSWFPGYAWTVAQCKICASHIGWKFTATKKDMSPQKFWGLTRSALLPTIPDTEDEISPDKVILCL
T1 sequence (Q16531 whole entry partner): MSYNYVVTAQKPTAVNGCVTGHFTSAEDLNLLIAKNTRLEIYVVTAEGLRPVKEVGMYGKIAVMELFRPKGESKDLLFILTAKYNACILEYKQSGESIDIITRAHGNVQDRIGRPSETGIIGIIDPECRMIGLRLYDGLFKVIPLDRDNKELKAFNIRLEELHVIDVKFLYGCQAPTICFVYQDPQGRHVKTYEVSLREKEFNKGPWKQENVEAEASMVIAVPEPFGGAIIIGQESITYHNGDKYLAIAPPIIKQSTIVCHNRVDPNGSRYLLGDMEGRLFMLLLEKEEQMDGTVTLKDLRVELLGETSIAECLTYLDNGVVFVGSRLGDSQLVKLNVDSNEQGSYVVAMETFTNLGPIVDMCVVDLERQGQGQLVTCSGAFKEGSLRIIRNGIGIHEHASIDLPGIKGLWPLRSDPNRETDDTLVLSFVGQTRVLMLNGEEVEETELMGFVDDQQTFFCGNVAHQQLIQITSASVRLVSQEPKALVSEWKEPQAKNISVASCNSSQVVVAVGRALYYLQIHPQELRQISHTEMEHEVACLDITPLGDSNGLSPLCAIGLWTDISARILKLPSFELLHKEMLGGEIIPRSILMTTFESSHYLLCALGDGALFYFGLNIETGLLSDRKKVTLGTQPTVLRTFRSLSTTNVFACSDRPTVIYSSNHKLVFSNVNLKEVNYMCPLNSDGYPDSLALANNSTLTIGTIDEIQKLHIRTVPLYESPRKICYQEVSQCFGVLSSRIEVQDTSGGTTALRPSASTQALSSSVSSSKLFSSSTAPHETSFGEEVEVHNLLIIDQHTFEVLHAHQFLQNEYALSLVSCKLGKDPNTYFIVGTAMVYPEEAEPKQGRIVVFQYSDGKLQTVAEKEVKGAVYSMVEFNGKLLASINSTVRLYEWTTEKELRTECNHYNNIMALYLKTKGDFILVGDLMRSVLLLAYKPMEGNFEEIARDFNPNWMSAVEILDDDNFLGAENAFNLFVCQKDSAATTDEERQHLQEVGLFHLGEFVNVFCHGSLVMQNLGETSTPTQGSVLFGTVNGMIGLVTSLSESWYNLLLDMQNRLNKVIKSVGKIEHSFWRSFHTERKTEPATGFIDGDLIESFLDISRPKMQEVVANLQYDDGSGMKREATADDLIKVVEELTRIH
The test is described as follows: GSPT1 degradation assay, Hep3B cell line. Particulars: HEP3B cells, 24 h, read-out: % of GSPT1 protein reduction. The protocol:
(§3) Hep3B cells were maintained in EMEM medium, supplemented with penicillin/streptomycin and 10% Fetal Bovine Serum (FBS). Cells were seeded on 6- or 12-well plates, and the compounds to be tested were added at the desired concentration range. Final DMSO concentration was 0.25%. After 24 h incubation (37° C., 5% CO2), cells were harvested, washed and cell lysates were prepared using RIPA lysis buffer. The amount of protein was determined via BCA assay, and the appropriate quantity was then loaded on the precast gel for the protein separation. After primary and secondary Ab staining, the membranes were washed and signals developed. The densitometry analysis was implemented to obtain the numeric values used later in the protein level evaluation process. Densitometry values were normalized to the loading control and calculated as [%] of the DMSO control.

The test system of test [3] is H929 cells. The test is described as follows: Cell viability CTG assay, H929. To be noted: H929, 72 h, 0.001-50 μM; for IC50: Homo sapiens, NCI-H929, read-out: Geomean absolute IC50 by molecule, 72 H. Also noted: key to Geomean absolute IC50 by molecule, 72 H: Inactive represents IC50 > 50 μM; C represents 50 μM ≥ IC50 > 5 μM. The protocol: as §1, §2
The target of test [4] is T2, Ikaros (IKZF1) (Homo sapiens, UniProt Q13422+Q96SW2).
T2 construct: Ikaros degradation in the H929 cell line was investigated; endogenous in cells; host or cells: H929
T2 sequence (Q13422 whole entry): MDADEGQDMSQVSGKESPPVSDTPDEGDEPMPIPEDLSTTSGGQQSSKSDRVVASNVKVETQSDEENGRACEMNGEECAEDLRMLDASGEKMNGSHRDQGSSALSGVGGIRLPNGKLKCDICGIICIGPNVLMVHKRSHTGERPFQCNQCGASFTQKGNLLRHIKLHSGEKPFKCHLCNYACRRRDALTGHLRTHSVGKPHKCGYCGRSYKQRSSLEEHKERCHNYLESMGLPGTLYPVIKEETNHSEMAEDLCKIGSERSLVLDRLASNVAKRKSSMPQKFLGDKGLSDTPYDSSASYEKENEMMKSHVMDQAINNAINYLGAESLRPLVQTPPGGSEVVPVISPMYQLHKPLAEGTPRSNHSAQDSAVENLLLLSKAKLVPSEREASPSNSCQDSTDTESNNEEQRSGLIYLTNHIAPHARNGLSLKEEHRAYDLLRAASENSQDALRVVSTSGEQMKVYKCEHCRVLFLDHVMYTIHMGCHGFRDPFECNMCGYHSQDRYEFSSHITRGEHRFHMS
T2 sequence (Q96SW2 whole entry): as the sequence (Q96SW2 whole entry) above
T2 sequence (Q16531 whole entry partner): as the sequence (Q16531 whole entry partner) above
Briefly: Ikaros degradation assay, H929 cell line. Particulars: H929 cells, 24 h; for inhibition at 10 µM / inhibition at 20 µM: NCI-H929, read-out: % of IKZF1 protein reduction. As for the experimental part:
as §3, with “Cells” for “Hep3B cells were maintained in EMEM medium, supplemented with penicillin/streptomycin and 10% Fetal Bovine Serum (FBS). Cells”, “Final DMSO concentration was 0.25%.” left out, “process.” for “process. Densitometry values were normalized to the loading control and calculated as [%] of the DMSO control.”

In test [5] the test system is Hep3B cells. Briefly: Cell viability CTG assay, Hep3B. To be noted: Homo sapiens, 72 h, 0.001-50 μM, read-out: Hep3B Geomean absolute IC50 by molecule, 72 H. As for the experimental part: as §1, §2
The subject of test [6] is KG-1 cells. The test is described as follows: Cell viability CTG assay, KG-1. To be noted: Homo sapiens; KG-1, 72 h, 0.001-50 μM; read-out: KG-1 Geomean absolute IC50 by molecule, 72 H. As for the experimental part: as §1, §2
Test [7] concerns the target T3, SALL4 (Homo sapiens, UniProt Q96SW2+Q9UJQ4).
T3 construct: SALL4 degradation in the Kelly cell line was investigated; endogenous in cells; host or cells: Kelly
Briefly: SALL4 degradation assay, Kelly cell line (Western blot densitometry). Particulars: Kelly cells, 24 h; for % of SALL4 protein reduction: 100 nM, average from n ≥ 2 experiments. As for the experimental part:
as §3, with “Cells” for “Hep3B cells were maintained in EMEM medium, supplemented with penicillin/streptomycin and 10% Fetal Bovine Serum (FBS). Cells”, “Final DMSO concentration was 0.25%.” left out, “process.” for “process. Densitometry values were normalized to the loading control and calculated as [%] of the DMSO control.”

Test [8] addresses T4, Aiolos (IKZF3) (Homo sapiens, UniProt Q96SW2+Q9UKT9).
T4 construct: Aiolos degradation in the H929 cell line was investigated; endogenous in cells; host or cells: H929
The test is described as follows: Aiolos degradation assay, H929 cell line. Particulars: H929 cells, 20 μM, 24 h. The protocol: as §3, with “Cells” for “Hep3B cells were maintained in EMEM medium, supplemented with penicillin/streptomycin and 10% Fetal Bovine Serum (FBS). Cells”, “Final DMSO concentration was 0.25%.” left out, “process.” for “process. Densitometry values were normalized to the loading control and calculated as [%] of the DMSO control.”

Like-named read-outs stand apart in the source and are kept apart here.

T3 sequence (Q9UJQ4 whole entry): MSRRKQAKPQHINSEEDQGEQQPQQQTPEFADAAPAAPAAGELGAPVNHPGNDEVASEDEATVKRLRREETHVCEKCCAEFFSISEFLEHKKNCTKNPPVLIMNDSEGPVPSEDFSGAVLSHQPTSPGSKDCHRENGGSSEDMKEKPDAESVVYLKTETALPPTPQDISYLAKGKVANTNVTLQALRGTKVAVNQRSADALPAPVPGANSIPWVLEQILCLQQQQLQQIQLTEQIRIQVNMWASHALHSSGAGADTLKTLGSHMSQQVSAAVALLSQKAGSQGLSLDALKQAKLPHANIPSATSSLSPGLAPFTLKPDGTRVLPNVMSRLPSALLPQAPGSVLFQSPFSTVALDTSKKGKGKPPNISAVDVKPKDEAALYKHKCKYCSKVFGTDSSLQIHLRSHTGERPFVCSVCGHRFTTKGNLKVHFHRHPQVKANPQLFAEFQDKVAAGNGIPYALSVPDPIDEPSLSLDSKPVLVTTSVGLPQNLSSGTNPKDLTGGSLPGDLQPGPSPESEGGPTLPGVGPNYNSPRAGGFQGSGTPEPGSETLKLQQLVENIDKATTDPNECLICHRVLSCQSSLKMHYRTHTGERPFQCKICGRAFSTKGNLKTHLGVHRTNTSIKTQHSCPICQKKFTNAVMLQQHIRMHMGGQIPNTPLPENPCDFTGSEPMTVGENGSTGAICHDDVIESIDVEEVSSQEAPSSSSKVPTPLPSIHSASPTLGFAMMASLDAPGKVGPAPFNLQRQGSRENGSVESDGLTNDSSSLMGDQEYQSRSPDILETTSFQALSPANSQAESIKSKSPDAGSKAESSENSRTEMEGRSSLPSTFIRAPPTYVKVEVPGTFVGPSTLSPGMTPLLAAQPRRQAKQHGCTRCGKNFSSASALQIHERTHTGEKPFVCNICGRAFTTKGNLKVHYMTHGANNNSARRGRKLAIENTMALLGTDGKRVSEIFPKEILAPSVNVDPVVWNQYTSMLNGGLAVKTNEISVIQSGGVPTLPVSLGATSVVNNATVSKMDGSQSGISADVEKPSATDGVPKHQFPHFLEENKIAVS
T3 sequence (Q96SW2 whole entry): as the sequence (Q96SW2 whole entry) above
T3 sequence (Q16531 whole entry partner): as the sequence (Q16531 whole entry partner) above
T4 sequence (Q9UKT9 whole entry): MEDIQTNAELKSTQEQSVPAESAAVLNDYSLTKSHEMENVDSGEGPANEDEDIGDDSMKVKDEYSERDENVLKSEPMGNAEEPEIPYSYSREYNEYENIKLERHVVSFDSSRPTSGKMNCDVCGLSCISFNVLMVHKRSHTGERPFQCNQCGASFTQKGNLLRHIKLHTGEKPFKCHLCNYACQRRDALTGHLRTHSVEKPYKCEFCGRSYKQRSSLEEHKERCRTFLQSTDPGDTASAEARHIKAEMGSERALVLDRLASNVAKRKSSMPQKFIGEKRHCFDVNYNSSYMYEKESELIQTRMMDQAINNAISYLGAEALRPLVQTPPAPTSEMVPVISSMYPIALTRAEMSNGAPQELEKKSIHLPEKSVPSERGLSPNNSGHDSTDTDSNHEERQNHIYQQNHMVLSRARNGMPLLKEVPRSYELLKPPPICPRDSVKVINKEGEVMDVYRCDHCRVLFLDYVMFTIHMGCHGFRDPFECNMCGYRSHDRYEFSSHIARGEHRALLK
T4 sequence (Q96SW2 whole entry): as the sequence (Q96SW2 whole entry) above
T4 sequence (Q16531 whole entry partner): as the sequence (Q16531 whole entry partner) above

With `[2H]C([2H])(N)c1ccc2c(c1)CN(C1CCC(=O)NC1=O)C2=O` (centres unmarked) [Compound 2, 3-(5-(aminomethyl-d2)-1-oxoisoindolin-2-yl)piperidine-2,6-dione], the IC50 in test [1] is 100 to 1000 nM; in test [3], 5000 to 50000 nM; in test [5] it was ≤ 100 nM; in test [6], 100 to 1000 nM. The figures for the inhibition at 10 µM in test [2] (10 uM) and in test [4] (10 uM) were 80 to 100% and 0 to 24%, respectively. In addition, in test [7], the “% of SALL4 protein reduction” value is given as >80%.
`CC(=O)Oc1cc(C)cc(C)c1C(C)(C)CC(=O)NCc1ccc2c(c1)CN(C1CCC(=O)NC1=O)C2=O` (centres unmarked) [Compound 21, 2-[1-({[2-(2,6-dioxopiperidin-3-yl)-1-oxo-2,3-dihydro-1H-isoindol-5-yl]methyl}carbamoyl)-2-methylpropan-2-yl]-3,5-dimethylphenyl acetate]: the IC50 in test [1] was 1000 to 5000 nM; in test [5] it was ≤ 100 nM; in test [6], 1000 to 5000 nM. Moreover, in test [3], the “Geomean absolute IC50 by molecule, 72 H” value is recorded as “Inactive”. In addition, in test [7], the “% of SALL4 protein reduction” value is >80%.
Consider `CC(=O)Oc1ccc(COC(=O)NCc2ccc3c(c2)CN(C2CCC(=O)NC2=O)C3=O)cc1` (centres unmarked) [Compound 22, 4-(((((2-(2,6-dioxopiperidin-3-yl)-1-oxoisoindolin-5-yl)methyl)carbamoyl)oxy)methyl)phenyl acetate], for which the IC50 in test [1] was 100 to 1000 nM; in test [3] it was 5000 to 50000 nM; in test [5], ≤ 100 nM; in test [6], ≤ 100 nM.
In the case of `CC(OC(=O)NCc1ccc2c(c1)CN(C1CCC(=O)NC1=O)C2=O)OC(=O)C(C)C` (centres unmarked) [Compound 23, 1-((((2-(2,6-dioxopiperidin-3-yl)-1-oxoisoindolin-5-yl)methyl)carbamoyl)oxy)ethyl isobutyrate], in test [3], the “Geomean absolute IC50 by molecule, 72 H” value is listed as “Inactive”. The inhibition at 20 µM in test [4] (20 uM) fell in the range of 0 to 24%. Moreover, the IC50 in test [5] is ≤ 100 nM. The “% of SALL4 protein reduction” value in test [7] was >80%.
On to `Cc1oc(=O)oc1COC(=O)NCc1ccc2c(c1)CN(C1CCC(=O)NC1=O)C2=O` (centres unmarked) [Compound 24, (5-methyl-2-oxo-2H-1,3-dioxol-4-yl)methyl N-{[2-(2,6-dioxopiperidin-3-yl)-1-oxo-2,3-dihydro-1H-isoindol-5-yl]methyl}carbamate], for which the half-maximal inhibitory concentration (IC50) is 1000 to 5000 nM in test [1], ≤ 100 nM in test [5] and ≤ 100 nM in test [6]. Further, the “Geomean absolute IC50 by molecule, 72 H” value in test [3] is recorded as “Inactive”. In addition, the inhibition at 20 µM in test [4] (20 uM) is 0 to 24%.
For the compound `NCC(=O)NCc1ccc2c(c1)CN(C1CCC(=O)NC1=O)C2=O` (centres unmarked) [Compound 25, 2-amino-N-((2-(2,6-dioxopiperidin-3-yl)-1-oxoisoindolin-5-yl)methyl)acetamide], the results for the IC50 in test [1], in test [5] and in test [6] were 1000 to 5000 nM, 100 to 1000 nM and 1000 to 5000 nM, respectively. In addition, in test [3], the “Geomean absolute IC50 by molecule, 72 H” value is listed as “Inactive”. Also, the inhibition at 20 µM in test [4] (20 uM) was 0 to 24%.
With `N[C@@H](Cc1cnc[nH]1)C(=O)NCc1ccc2c(c1)CN([C@H]1CCC(=O)NC1=O)C2=O` [Compound 28, (S)-2-amino-N-((2-((S)-2,6-dioxopiperidin-3-yl)-1-oxoisoindolin-5-yl)methyl)-3-(1H-imidazol-4-yl)propanamide], the IC50 in test [1], in test [5] and in test [6] was 100 to 1000 nM each time. The “% of IKZF3 protein reduction” value in test [8] is recorded as “C (C represents 0-24% of IKZF1 protein reduction)”. In addition, the inhibition at 1 µM in test [2] (1 uM) was 80 to 100%. Besides, the “Geomean absolute IC50 by molecule, 72 H” value in test [3] was “Inactive”. The inhibition at 10 µM in test [4] (10 uM) was in the range of 0 to 24%.
As to `CC(C)(C)OC(=O)N[C@@H](Cc1cnc[nH]1)C(=O)NCc1ccc2c(c1)CN([C@@H]1CCC(=O)NC1=O)C2=O` [Compound 29, tert-butyl ((S)-1-(((2-((R)-2,6-dioxopiperidin-3-yl)-1-oxoisoindolin-5-yl)methyl)amino)-3-(1H-imidazol-4-yl)-1-oxopropan-2-yl)carbamate], the “% of IKZF3 protein reduction” value in test [8] is on record as “C (C represents 0-24% of IKZF1 protein reduction)”. Also, the inhibition at 20 µM in test [4] (20 uM) was 0 to 24%.
On to `CC(C)C(NC(=O)OC(C)(C)C)C(=O)NCc1ccc2c(c1)CN(C1CCC(=O)NC1=O)C2=O` (centres unmarked) [Compound 31, tert-butyl (1-(((2-(2,6-dioxopiperidin-3-yl)-1-oxoisoindolin-5-yl)methyl)amino)-3-methyl-1-oxobutan-2-yl)carbamate], for which the IC50 in test [1] fell in the range of 1000 to 5000 nM; in test [5], 100 to 1000 nM; in test [6], 1000 to 5000 nM. The “Geomean absolute IC50 by molecule, 72 H” value in test [3] is “Inactive”. For the same compound, the inhibition at 20 µM in test [4] (20 uM) was in the range of 0 to 24%.
On to `O=C(CCc1c[nH]c2ccccc12)NCc1ccc2c(c1)CN(C1CCC(=O)NC1=O)C2=O` (centres unmarked) [Compound 36], for which the IC50 in test [1], in test [5] and in test [6] was ≤ 100 nM in each case.
As for `NC(Cc1c[nH]c2ccccc12)C(=O)NCc1ccc2c(c1)CN(C1CCC(=O)NC1=O)C2=O` (centres unmarked) [Compound 37, 2-amino-N-((2-(2,6-dioxopiperidin-3-yl)-1-oxoisoindolin-5-yl)methyl)-3-(1H-indol-3-yl)propanamide], the figures for the IC50 in test [1], in test [5] and in test [6] were 100 to 1000 nM, ≤ 100 nM and 100 to 1000 nM, respectively. Moreover, in test [3], the “Geomean absolute IC50 by molecule, 72 H” value was “Inactive”. Also, in test [4] (20 uM), the inhibition at 20 µM lay within 0 to 24%.
As to `C[C@@H](O)[C@H](N)C(=O)NCc1ccc2c(c1)CN(C1CCC(=O)NC1=O)C2=O` (stereo partly drawn) [Compound 39, (2S,3R)-2-amino-N-((2-(2,6-dioxopiperidin-3-yl)-1-oxoisoindolin-5-yl)methyl)-3-hydroxybutanamide], the IC50 in test [1] was 1000 to 5000 nM; in test [5], 100 to 1000 nM; in test [6], 1000 to 5000 nM. Besides, the “Geomean absolute IC50 by molecule, 72 H” value in test [3] is reported as “Inactive”. In addition, the inhibition at 20 µM in test [4] (20 uM) was in the range of 0 to 24%.
Regarding `O=C(CCc1ccc(Cl)cc1)NCc1ccc2c(c1)CN(C1CCC(=O)NC1=O)C2=O` (centres unmarked) [Compound 42], the IC50 in test [1], in test [5] and in test [6] was ≤ 100 nM in each case.
With `CCCCCC(=O)NCc1ccc2c(c1)CN(C1CCC(=O)NC1=O)C2=O` (centres unmarked) [Compound 100, reference compound], in test [8] (numeric values), the “% of IKZF3 protein reduction” value is reported as 52%. Moreover, the inhibition at 10 µM in test [4] (10 uM, numeric values) amounted to 52%.
Regarding `Nc1cccc2c1C(=O)N(C1CCC(=O)NC1=O)C2=O` (centres unmarked) [Pomalidomide, pomalidomide, reference compound], the “% of IKZF3 protein reduction” value in test [8] (numeric values) came out at 87%. Also, the IC50 in test [3] (numeric values) amounted to 61 nM. Moreover, the “% of IKZF1 protein reduction” value was 86% in test [4] (10 uM, numeric values) and 91% in test [4] (20 uM, numeric values).
Take `O=C1CCC(N2C(=O)c3ccccc3C2=O)C(=O)N1` (centres unmarked) [Thalidomide, reference compound]: the “degradation of SALL4” value in test [7] (0.01 μM, FIG. 1) is on record as “lower activity”. Further, in test [7], the “% of SALL4 protein reduction” value was determined as 53%.
